Measurements published in patent US20240196899A1, “PESTICIDAL MIXTURES” (priority 2021, published 2024).
Read-outs that look alike come from different tables or passages of the source.

Columns and labels:
[1] = system: Cotton Leafworm, S. littoralis; assay: Insecticidal % control against Cotton Leafworm, S. littoralis, Colby synergy; type: in vivo, Spodoptera littoralis; details: 72 hours after treatment
Experimental: (§1) Colby's method is used to determine if synergy exists for a combination of active ingredients. According to Colby, the expected action (E) of active ingredients A+B is:
(§2) [formula] • where E=expected efficacy, A and B=the efficacy of two active ingredients A and B at a given dose.
(§3) When the percentage of control observed (O) for the combination is greater than the expected (E) percentage, there is a synergistic effect. The synergism ratio (R) is calculated as the ratio between the […].
(§4) The insecticidal compounds A (Novaluron) and B (mix partner) are formulated as equivalent suspension concentrates to eliminate the effects of differing formulation inerts on biological activity. Efficacy of the insecticidal compositions is evaluated with reference to a scale of 0% to 100% in comparison with untreated control plots. 0 means no damage and 100 means complete destruction of the harmful pests.
(§5) Likewise following experimentations were done on other mixtures of novaluron on various pests, the result of which are summarized in the below tables: […]

S. frugiperda = assay: Insecticidal % control against S. frugiperda, Colby synergy; type: in vivo, Spodoptera frugiperda; details: 120 hours after treatment
Experimental: as §1, §2, §3, §4, §5

[2] = system: Spodoptera littoralis larvae; assay: Larval mortality of S. littoralis fed on treated castor bean leaves (tank mix novaluron + methoxyfenozide), Colby synergy; type: in vivo; details: Spodoptera littoralis, in Ricinus communis, Table 1, 0.01 mg a.i./L of each active
Experimental: as §1, §2, §3
A representative experiment was conducted to evaluate the insecticidal control of novaluron, a compound II, namely methoxyfenozide as well as a mixture of novaluron and methoxyfenozide against Spodoptera littoralis larvae.
(§6) The experiments were conducted by applying commercially available compositions of Novaluron (Rimon®) and methoxyfenozide (Runner®) alone or together. The compositions were diluted with water to the stated concentration of the active compound.
(§7) The following active ingredients and their mixtures were evaluated: • Novaluron: 0.01 mg a.i./liter • Methoxyfenozide: 0.01 mg a.i./liter • Novaluron+Methoxyfenozide 0.01 mg a.i./liter+0.01 mg a.i./liter
(§8) To evaluate the insecticidal control of novaluron and methoxyfenozide alone and in a binary mixture, castor bean leaves were treated with the above listed treatments. The treated leaves were exposed for 4-day feeding to 3rd-instar Spodoptera littoralis and the larvae were exposed for additional 4 days on untreated leaves. Larval mortality was determined at day 4 and 8. The treatments were composed of 3-5 replicates of 10 larvae each.

T. absoluta = assay: Insecticidal % control against T. absoluta, Colby synergy; type: in vivo, Tuta absoluta; details: 72 hours after treatment
Experimental: as §1, §2, §3, §4, §5

[3] = system: Spodoptera littoralis larvae; assay: Larval weight gain (LWG) of S. littoralis on treated castor bean leaves; type: in vivo; details: Table 3
Experimental: as §6, §7, §8
Larval weight gain (LWG) was also measured in order to determine the effectiveness of the mixture of novaluron and methoxyfenozide when compared to the solo application of novaluron and methoxyfenozide.
Table 3 below summarizes the larval weight gain (LWG) (compared to the control), that was determined 4 days after treatment for the mixture of novaluron and methoxyfenozide.

F. occidentalis = assay: Insecticidal % control against F. occidentalis, Colby synergy; type: in vivo, Frankliniella occidentalis
Experimental: as §1, §2, §3, §4, §5

A. gossypii = assay: Insecticidal % control against A. gossypii, Colby synergy; type: in vivo, Aphis gossypii; details: 96 hours after treatment
Experimental: as §1, §2, §3, §4, §5

M. persicae = assay: Insecticidal % control against M. persicae, Colby synergy; type: in vivo, Myzus persicae
Experimental: as §1, §2, §3, §4, §5

H. halys = assay: Insecticidal % control against H. halys, Colby synergy; type: in vivo, Halyomorpha halys; details: Table 20 B; 144 hours after treatment; 5 ppm
Experimental: as §1, §2, §3, §4, §5

T. urticae = assay: Insecticidal % control against T. urticae, Colby synergy; type: in vivo, Tetranychus urticae
Experimental: as §1, §2, §3, §4, §5

B. tabaci = assay: Insecticidal % control against B. tabaci, Colby synergy; type: in vivo, Bemisia tabaci; details: Table 7, 72 hours after treatment
Experimental: as §1, §2, §3, §4, §5

CCN(C(=O)CCSCCC(F)(F)F)c1cn(-c2cccnc2)nc1Cl [Tyclopyrazoflor]
Observed % control (O) ([1]; Table 13, 12 ppm): 12.5%

CN(C(=O)c1ccccc1)c1cccc(C(=O)Nc2c(Br)cc(C(F)(C(F)(F)F)C(F)(F)F)cc2C(F)(F)F)c1F [Broflanilide]
Observed % control (O) (S. frugiperda; Table 9, 0.001 ppm): 10% | Observed % control (O) (S. frugiperda; Table 9, 0.01 ppm): 20%

CN(C(=O)c1cc(-c2cnn(-c3c(Cl)cc(C(F)(C(F)(F)F)C(F)(F)F)cc3Cl)c2)cnc1Cl)C1CC1 [Nicofluprole]
Observed % control (O) ([1]; Table 21, 12 ppm): 0%

COc1cccc(C(=O)NN(C(=O)c2cc(C)cc(C)c2)C(C)(C)C)c1C [Methoxyfenozide]
mortality at 0.01 µg/mL ([2]; 96 h, 3rd-instar larvae, 4-day feeding on treated leaves, day 4, read-out: Larval mortality, % (observed) 4 d): 4.1% | mortality at 0.01 µg/mL ([2]; 4 days on treated then 4 days on untreated leaves, day 8, read-out: Larval mortality, % (observed) 8 d): 12% | Observed % control (O) (T. absoluta; Table 2, 3 ppm): 16.7% | LWG % rel. Control ([3]; 4 days after treatment, 0.01 mg a.i./L of each active): 93 % rel. Control | effect on the weight gain of the Spodoptera littoralis larvae ([3]; applied alone): neither novaluron nor methoxyfenozide alone have any effect on the weight gain

CNC(=O)c1cc(C#N)cc(C)c1NC(=O)c1cc(Cn2nnc(C(F)(F)F)n2)nn1-c1ncccc1Cl [Tetraniliprole]
Observed % control (O) ([1]; Table 10 B, 0.004 ppm): 7.5% | Observed % control (O) ([1]; Table 10 B, 0.02 ppm): 17.5% | Observed % control (O) ([1]; Table 10 B, 0.1 ppm): 95% | Observed % control (O) (S. frugiperda; Table 10 A, 0.001 ppm): 0% | Observed % control (O) (S. frugiperda; Table 10 A, 0.01 ppm): 0%

CCOC(=O)CC(SP(=S)(OC)OC)C(=O)OCC (centres unmarked) [Malathion]
Observed % control (O) (F. occidentalis; Table 18 B, 72 hours after treatment, 5 ppm): 6.0% | Observed % control (O) (F. occidentalis; Table 18 B, 72 hours after treatment, 500 ppm): 80.0% | Observed % control (O) (A. gossypii; Table 18 A, 100 ppm): 81.7%

COP(=O)(NC(C)=O)SC (centres unmarked) [Acephate]
Observed % control (O) (M. persicae; Table 17 A, 72 hours after treatment, 2 ppm): 66% | Observed % control (O) (M. persicae; Table 17 B, 7 days after treatment, 2 ppm): 75.0%

Spinetoram
Observed % control (O) ([1]; Table 5 B, 0.004 ppm): 0% | Observed % control (O) ([1]; Table 5 B, 0.1 ppm): 80% | Observed % control (O) (T. absoluta; Table 5 C, 1 ppm): 50% | Observed % control (O) (T. absoluta; Table 5 C, 3 ppm): 33.3% | Observed % control (O) (T. absoluta; Table 5 C, 10 ppm): 83.3% | Observed % control (O) (S. frugiperda; Table 5 A, 0.01 ppm): 20% | Observed % control (O) (S. frugiperda; Table 5 A, 0.025 ppm): 30% | Observed % control (O) (S. frugiperda; Table 5 A, 0.05 ppm): 45% | Observed % control (O) (F. occidentalis; Table 5 D, 48 hours after treatment, 3.5 ppm): 18.0% | Observed % control (O) (F. occidentalis; Table 5 D, 48 hours after treatment, 350 ppm): 78.0% | Observed % control (O) (F. occidentalis; Table 5 E, 72 hours after treatment, 3.5 ppm): 22.0% | Observed % control (O) (F. occidentalis; Table 5 E, 72 hours after treatment, 350 ppm): 82.0% | Observed % control (O) (F. occidentalis; Table 5 F, 7 days after treatment, 3.5 ppm): 30.0% | Observed % control (O) (F. occidentalis; Table 5 F, 7 days after treatment, 350 ppm): 82.0%

CCN1OCC(NC(=O)c2ccc(C3=NOC(c4cc(Cl)c(F)c(Cl)c4)(C(F)(F)F)C3)cc2C)C1=O (centres unmarked) [Isocycloseram]
Observed % control (O) ([1]; Table 8, 12 ppm): 12.5%

N#Cc1nn(-c2c(Cl)cc(C(F)(F)F)cc2Cl)c(N)c1[S+]([O-])C(F)(F)F (centres unmarked) [Fipronil]
Observed % control (O) ([1]; Table 20 A, 0.002 ppm): 0% | Observed % control (O) ([1]; Table 20 A, 0.02 ppm): 5% | Observed % control (O) (H. halys): 87.5% | Observed % control (O) (F. occidentalis; Table 20 C, 48 hours after treatment, 1 ppm): 66.0% | Observed % control (O) (F. occidentalis; Table 20 D, 72 hours after treatment, 1 ppm): 70.0% | Observed % control (O) (F. occidentalis; Table 20 D, 72 hours after treatment, 100 ppm): 90.0% | Observed % control (O) (F. occidentalis; Table 20 E, 7 days after treatment, 1 ppm): 84.0%

O=C(N=c1ccccn1Cc1ccc(Cl)nc1)C(F)(F)F [Flupyrimin]
Observed % control (O) ([1]; Table 12, 12 ppm): 0%

CN/C(=N/CC1CCOC1)N[N+](=O)[O-] (centres unmarked) [Dinotefuran]
Observed % control (O) ([1]; Table 16, 0.04 ppm): 25%

Spinosad
Observed % control (O) (F. occidentalis; Table 4 A, 48 hours after treatment, 5.3 ppm): 2.0% | Observed % control (O) (F. occidentalis; Table 4 B, 72 hours after treatment, 5.3 ppm): 4.0% | Observed % control (O) (F. occidentalis; Table 4 B, 72 hours after treatment, 530 ppm): 32.0% | Observed % control (O) (F. occidentalis; Table 4 C, 7 days after treatment, 5.3 ppm): 32.0% | Observed % control (O) (F. occidentalis; Table 4 C, 7 days after treatment, 530 ppm): 60.0%

CCOC(=O)OC1=C(c2cc(C)ccc2C)C(=O)N[C@]12CC[C@@H](OC)CC2 [Spirotetramat]
Observed % control (O) (T. urticae; Table 6 C, 48 hours after treatment, 600 ppm): 8.0% | Observed % control (O) (T. urticae; Table 6 D, 72 hours after treatment, 6 ppm): 6.0% | Observed % control (O) (T. urticae; Table 6 D, 72 hours after treatment, 600 ppm): 14.0% | Observed % control (O) (T. urticae; Table 6 E, 7 days after treatment, 600 ppm): 16.2% | Observed % control (O) (M. persicae; Table 6 A, 72 hours after treatment, 100 ppm): 68% | Observed % control (O) (M. persicae; Table 6 B, 7 days after treatment, 100 ppm): 85.7%

C[C@]1(COC(=O)C2CC2)[C@@H]2C[C@H](O)[C@@]3(C)Oc4cc(-c5cccnc5)oc(=O)c4[C@H](O)[C@@H]3[C@@]2(C)CC[C@@H]1OC(=O)C1CC1 [Afidopyropen]
Observed % control (O) (B. tabaci; 7 ppm): 35.1% | Observed % control (O) (B. tabaci; 35 ppm): 49.8%

CC(c1ccc(C(F)(F)F)nc1)S(C)(=O)=NC#N (centres unmarked) [Sulfoxaflor]
Observed % control (O) (M. persicae; Table 15 A, 48 hours after treatment, 0.5 ppm): 64% | Observed % control (O) (M. persicae; Table 15 B, 72 hours after treatment, 0.5 ppm): 70% | Observed % control (O) (M. persicae; Table 15 B, 72 hours after treatment, 2.5 ppm): 82%

CCOCn1c(-c2ccc(Cl)cc2)c(C#N)c(Br)c1C(F)(F)F [Chlorfenapyr]
Observed % control (O) (T. urticae; Table 14 A, 48 hours after treatment, 2.4 ppm): 64% | Observed % control (O) (T. urticae; Table 14 A, 48 hours after treatment, 24 ppm): 79% | Observed % control (O) (T. urticae; Table 14 B, 72 hours after treatment, 2.4 ppm): 78% | Observed % control (O) (T. urticae; Table 14 B, 72 hours after treatment, 24 ppm): 86% | Observed % control (O) (T. urticae; Table 14 C, 7 days after treatment, 2.4 ppm): 86% | Observed % control (O) (T. urticae; Table 14 C, 7 days after treatment, 24 ppm): 94%

Cc1cc(C)c(C2=C(OC(=O)CC(C)(C)C)C3(CCCC3)OC2=O)c(C)c1 [Spiromesifen]
Observed % control (O) (M. persicae; Table 19 B, 7 days after treatment, 5 ppm): 58.3% | Observed % control (O) (A. gossypii; Table 19 A, 500 ppm): 75.3%

Dicloromezotiaz
Observed % control (O) ([1]; Table 11, 12 ppm): 0%
